9 compounds from patent US20140128352A1, “COMPOUNDS AND METHODS FOR MODULATING MITOCHONDRIAL METABOLISM AND REACTIVE OXYGEN SPECIES PRODUCTION” (Buck Institute for Research on Aging, priority 2012, published 2014) can be followed below.

The test system of test [1] is ubiquinone binding site of complex I (IQ). Briefly: High-throughput screen: ROS production from ubiquinone binding site of complex I (IQ), isolated skeletal muscle mitochondria. The class given is biochemical, rat. The note with it: percent change in ROS from DMSO controls.
In test [2] the target is T1, flavin binding site of complex I (IF) (Rattus norvegicus, UniProt Q5XIH3).
T1 construct: freshly isolated muscle mitochondria were assayed; from tissue; host or cells: rat skeletal muscle mitochondria (Wistar, Harlan Laboratories)
T1 sequence (Q5XIH3 21-464 limits assumed, one chain of several): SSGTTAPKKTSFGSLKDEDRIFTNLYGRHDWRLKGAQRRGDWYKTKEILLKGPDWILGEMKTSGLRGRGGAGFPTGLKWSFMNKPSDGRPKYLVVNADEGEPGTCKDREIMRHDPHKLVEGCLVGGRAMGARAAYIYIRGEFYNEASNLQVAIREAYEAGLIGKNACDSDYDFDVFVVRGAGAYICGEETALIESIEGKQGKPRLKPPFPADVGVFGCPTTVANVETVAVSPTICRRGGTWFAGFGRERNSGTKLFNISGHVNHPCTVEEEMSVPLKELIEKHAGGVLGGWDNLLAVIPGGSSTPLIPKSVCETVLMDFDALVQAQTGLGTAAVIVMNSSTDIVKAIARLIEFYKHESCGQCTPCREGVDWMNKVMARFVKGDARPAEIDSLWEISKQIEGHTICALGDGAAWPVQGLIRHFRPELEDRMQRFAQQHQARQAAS
Briefly: High-throughput screen: ROS production from flavin binding site of complex I (IF). The class given is biochemical.

Test [3] concerns the target T2, outer ubiquinone binding site of complex III (IIIQO) (Rattus norvegicus, UniProt P00159+P20788).
T2 construct: freshly isolated muscle mitochondria were assayed; from tissue; host or cells: rat skeletal muscle mitochondria (Wistar, Harlan Laboratories)
The experiment in a line: High-throughput screen: ROS production from outer ubiquinone binding site of complex III (IIIQO). The class given is biochemical. Particulars: for IIIQO: Table 8.
Description: Skeletal muscle mitochondria were isolated from 5-8 week old female Wistar rats (Harlan Laboratories). Minced muscle was homogenized in buffer containing bacterial protease Type VIII prior to differential centrifugation to separate mitochondria from other tissue components. Unless otherwise stated, freshly isolated muscle mitochondria were assayed in buffer containing 120 mM KCl, 5 mM HEPES, 1 mM EGTA, 0.3% (w/v) bovine serum albumin. Where indicated, CaCl2 was added to yield a final free concentration of 250 nM calcium at pH 7.0 at 37° C.
Compounds (10 mM in DMSO) were randomly selected from a library of 24,000 compounds obtained from ChemBridge and curated by the lab of Robert Hughes at the Buck Institute. Master screening plates were prepared using a Biomek FX liquid handling workstation (Beckman) to transfer 1 μL of each compound into individual wells on 96-well storage plates (80 compounds per plate). Master plates were sealed with foil and stored at −80° C. Just prior to use, plates were brought to room temperature and diluted 300-fold with standard buffer (13.3X=33.3 μM). To monitor the performance of each assay throughout screening and to provide intra-plate normalization reference points, DMSO negative controls and known mitochondrial inhibitor positive controls were included on each Master compound plate.
Total amounts of superoxide and H2O2 production were determined fluorometrically as H2O2, without distinguishing between them, in the presence of exogenous superoxide dismutase (25 units/mL final), horseradish peroxidase (1 unit/mL final), and Amplex UltraRed (25 μM final) as described (Affourtit, C. et al. (2012) Measurement of proton leak and electron leak in isolated mitochondria. Methods Mol. Biol. 810: 165-82). Just prior to use, a bulk 3.3X solution was made in standard buffer and distributed into a 2 mL deep well 96-well transfer plate.
To assess the effects of a compound on ROS production from the outer ubiquinone binding site of complex III (IIIQO), Start Solution containing 5 mM succinate, 4 μM rotenone and 2.5 μM antimycin A was distributed into standard 96-well transfer plates. A Biomek FX workstation was programmed to dispense solutions into black 96-well assay plates. Solutions were dispensed to all assay plates in the following order: ROS Detection solution described in Example 3, Mitochondria solution described in Example 1 to a final concentration of 0.1 mg/ml, and Compound dilutions described in Example 2. Duplicate assay plates were made and each was initiated by the addition of 3.3X Start solution containing 5 mM succinate, 4 μM rotenone and 2.5 μM antimycin A. Plates were incubated in the dark at room temperature for 30-40 minutes before acquiring endpoint fluorescence using a Victor 3V plate reader (Perkin Elmer) equipped with 550/590 nm excitation/emission filters.
The fluorescence values in each well were scaled as the percent change from the intra-plate DMSO controls with the appropriate inhibitor positive controls defined as −100%. Following initial scaling, intra-plate normalized values were subjected to Tukey's two-way median polish to remove row and column dependent positional effects (Malo et al., 2006).

Test [4] addresses T3, succinate dehydrogenase/complex II (SDH) (Rattus norvegicus, UniProt P21913+Q641Z9+Q6PCT8+Q920L2).
T3 construct: freshly isolated muscle mitochondria were assayed; from tissue; host or cells: rat skeletal muscle mitochondria (Wistar, Harlan Laboratories)
The experiment in a line: High-throughput screen: ROS production from succinate dehydrogenase/complex II (SDH). The class given is biochemical. The note with it: percent change in ROS from DMSO controls; for inhibition at 2.5 µM: Table 7.

For test [5], the target named is T4, glycerol-3-phosphate dehydrogenase (GPDH) (Rattus norvegicus, UniProt P35571).
T4 construct: The activity of GPDH in intact mitochondria (0.3 mg/mL) was measured; from tissue; host or cells: rat skeletal muscle mitochondria (Wistar, Harlan Laboratories)
T4 sequence (P35571 43-727): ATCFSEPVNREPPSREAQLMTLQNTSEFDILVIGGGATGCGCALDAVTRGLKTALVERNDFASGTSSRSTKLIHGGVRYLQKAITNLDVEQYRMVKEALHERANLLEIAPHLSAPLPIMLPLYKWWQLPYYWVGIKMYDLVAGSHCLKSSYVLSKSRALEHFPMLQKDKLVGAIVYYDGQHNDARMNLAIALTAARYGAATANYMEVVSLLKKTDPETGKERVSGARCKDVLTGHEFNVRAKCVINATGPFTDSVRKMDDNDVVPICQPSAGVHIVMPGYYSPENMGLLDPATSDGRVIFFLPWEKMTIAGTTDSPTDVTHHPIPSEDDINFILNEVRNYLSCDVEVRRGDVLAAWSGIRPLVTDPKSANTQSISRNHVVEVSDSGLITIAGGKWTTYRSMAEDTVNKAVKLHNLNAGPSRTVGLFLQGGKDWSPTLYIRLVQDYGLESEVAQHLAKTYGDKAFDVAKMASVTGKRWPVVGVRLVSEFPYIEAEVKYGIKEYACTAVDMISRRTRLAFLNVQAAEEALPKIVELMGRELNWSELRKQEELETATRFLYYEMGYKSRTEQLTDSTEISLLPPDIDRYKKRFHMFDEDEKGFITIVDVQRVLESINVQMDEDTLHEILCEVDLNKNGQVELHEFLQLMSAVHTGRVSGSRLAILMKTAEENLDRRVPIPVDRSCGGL
Briefly: High-throughput screen: ROS production from glycerol-3-phosphate dehydrogenase (GPDH). The arrangement: inhibition: dose or concentration left out as unconfirmed. Particulars: for inhibition: Table 7; for inhibition / GPDH: percent change in ROS from DMSO controls. The class given is biochemical.

Test [6] relates to mitochondrial membrane potential (ΔΨm). Briefly: Membrane potential (ΔΨm) counterscreen with TMRM. The note with it: malate, nigericin. For orientation: Counterscreens check selectivity or assay interference.
Where [7] appears, read: Table 3, 5 mM glutamate, 5 mM malate, 4 μM rotenone, compounds 2.5 μM, percent change from DMSO, positive control −100%, read-out: % Reduction in ROS production (IF).
The mark [8] stands for this setting: Table 7, percent change in ROS from DMSO controls, read-out: IF.
The mark [9] stands for this setting: Table 8, percent change in ROS from DMSO controls.
Setting [10] is: Table 9, percent change in ROS from DMSO controls.
[11] abbreviates: Table 7, percent change in ROS from DMSO controls, read-out: IIIQO.
Where [12] appears, read: percent change in ROS from DMSO controls.
The mark [13] stands for this setting: Table 9, percent change in ROS from DMSO controls, read-out: IIIQo.
Setting [14] is: Table 4, 5 mM succinate, 4 μM rotenone, 2.5 μM antimycin A, compounds 2.5 μM, percent change from DMSO, read-out: % Reduction in ROS production (IIIQO).

Read-outs that look alike come from different tables or passages of the source.

T3 sequence (Q920L2 35-656): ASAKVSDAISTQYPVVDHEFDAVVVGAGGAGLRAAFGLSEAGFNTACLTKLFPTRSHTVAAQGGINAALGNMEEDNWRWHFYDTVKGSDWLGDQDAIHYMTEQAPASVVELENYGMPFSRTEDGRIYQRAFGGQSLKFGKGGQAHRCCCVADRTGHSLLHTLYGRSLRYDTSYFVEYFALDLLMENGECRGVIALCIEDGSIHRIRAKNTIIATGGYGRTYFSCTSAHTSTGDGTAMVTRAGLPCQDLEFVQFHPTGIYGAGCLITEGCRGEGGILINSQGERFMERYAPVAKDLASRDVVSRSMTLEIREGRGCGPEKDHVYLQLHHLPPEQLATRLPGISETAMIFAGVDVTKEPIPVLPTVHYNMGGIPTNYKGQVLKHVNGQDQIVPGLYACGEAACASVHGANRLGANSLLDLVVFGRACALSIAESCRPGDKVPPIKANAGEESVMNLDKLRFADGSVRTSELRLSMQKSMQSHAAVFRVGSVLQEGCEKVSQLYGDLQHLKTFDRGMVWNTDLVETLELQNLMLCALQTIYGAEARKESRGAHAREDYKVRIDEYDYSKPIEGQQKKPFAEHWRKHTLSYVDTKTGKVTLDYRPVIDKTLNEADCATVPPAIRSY
T3 sequence (P21913 31-282): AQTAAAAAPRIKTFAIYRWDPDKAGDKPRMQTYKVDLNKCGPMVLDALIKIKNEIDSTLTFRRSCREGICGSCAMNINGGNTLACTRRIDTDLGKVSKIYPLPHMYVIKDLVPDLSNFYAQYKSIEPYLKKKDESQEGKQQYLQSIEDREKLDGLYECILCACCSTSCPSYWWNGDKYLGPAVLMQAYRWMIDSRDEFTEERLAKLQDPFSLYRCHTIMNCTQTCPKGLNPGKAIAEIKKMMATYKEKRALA
T3 sequence (Q641Z9 30-169 limits assumed): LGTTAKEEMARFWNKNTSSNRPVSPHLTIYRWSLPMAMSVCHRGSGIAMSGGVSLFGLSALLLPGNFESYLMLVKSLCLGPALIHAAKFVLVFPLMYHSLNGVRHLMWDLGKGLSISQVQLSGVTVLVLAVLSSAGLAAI
T3 sequence (Q6PCT8 57-159): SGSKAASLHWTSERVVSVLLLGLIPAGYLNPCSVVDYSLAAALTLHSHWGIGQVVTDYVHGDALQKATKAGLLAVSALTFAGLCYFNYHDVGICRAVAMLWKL

`CCN(CC)CCN(CC)Cc1ccc(Cl)cc1Cl` [Compound 25]: the IQ in test [1] (Table 7), in test [1] (Table 8) and in test [1] (Table 9) was −0.6 throughout. Moreover, the inhibition at 2.5 µM stood at 19.7% in test [2] (setting [7]); 19.7% in test [2] (setting [8]); 3.3% in test [3] (setting [11]); 3.3% in test [3] (setting [13]); 0.1% in test [4]. In addition, the IF in test [2] (setting [9]) and in test [2] (setting [10]) was −19.7 throughout. For the same compound, the IIIQO in test [3] (setting [12]) was −3.3. The SDH in test [4] (Table 8) and in test [4] (Table 9) was −0.1 each time. In test [5], the inhibition came to 2.5%. The GPDH in test [5] (Table 8) and in test [5] (Table 9) was −2.5 throughout. For the same compound, the ΔΨm in test [6] (Table 8, glutamate) was −0.4; in test [6] (Table 9, glutamate), −0.4.
Take `Cc1ccc(S(=O)(=O)Nc2nnc(C)s2)cc1` [Compound 27]: the IQ in test [1] (Table 7), in test [1] (Table 8) and in test [1] (Table 9) was 0.0 in each case. The inhibition at 2.5 µM in test [2] (setting [7]) was 19.6%; in test [2] (setting [8]), 19.6%; in test [3] (setting [11]) it was 0.1%; in test [3] (setting [13]), 0.1%; in test [4], -0.8%. Moreover, the IF in test [2] (setting [9]) and in test [2] (setting [10]) was −19.6 throughout. The IIIQO in test [3] (setting [12]) is −0.1. Further, the SDH in test [4] (Table 8) and in test [4] (Table 9) was 0.8 each time. For the same compound, in test [5], the inhibition is 0.4%. Moreover, the GPDH in test [5] (Table 8) and in test [5] (Table 9) was −0.4 throughout. For the same compound, the ΔΨm is listed as 1.6 in test [6] (Table 8, glutamate) and 1.6 in test [6] (Table 9, glutamate).
In the case of `O=C(Nc1ccc(Br)cc1)[C@@H]1C2C=CC(C2)[C@@H]1C(=O)O` (stereo partly drawn) [Compound 28], the IQ in test [1] (Table 7), in test [1] (Table 8) and in test [1] (Table 9) was 0.2 in each case. For the same compound, the inhibition at 2.5 µM in test [2] (setting [7]) is 19.1%; in test [2] (setting [8]), 19.1%; in test [3] (setting [11]), 2.5%; in test [3] (setting [13]), 2.5%; in test [4] it was -1.3%. For the same compound, the IF in test [2] (setting [9]) and in test [2] (setting [10]) was −19.1 each time. In test [3] (setting [12]), the IIIQO is −2.5. Besides, the SDH in test [4] (Table 8) and in test [4] (Table 9) was 1.3 in each case. Besides, the inhibition in test [5] turned out to be 2.3%. Also, the GPDH in test [5] (Table 8) and in test [5] (Table 9) was −2.3 throughout. The ΔΨm is listed as −1.3 in test [6] (Table 8, glutamate) and −1.3 in test [6] (Table 9, glutamate).
`Cc1ccc(CCSc2ccc(F)cc2)cn1` [Compound 35]: the IQ in test [1] (Table 7), in test [1] (Table 8) and in test [1] (Table 9) was 1.3 each time. Besides, the inhibition at 2.5 µM in test [2] (setting [8]) was 0.7%; in test [3] (setting [14]), 34.9%; in test [3] (setting [11]) it was 34.9%; in test [3] (setting [13]), 34.9%; in test [4], -0.2%. Besides, the IF in test [2] (setting [9]) and in test [2] (setting [10]) was −0.7 throughout. The IIIQO in test [3] (setting [12]) is −34.9. Besides, the SDH in test [4] (Table 8) and in test [4] (Table 9) was 0.2 in each case. Besides, in test [5], the inhibition was 5.3%. The GPDH in test [5] (Table 8) and in test [5] (Table 9) was −5.3 in each case. Also, the ΔΨm in test [6] (Table 8, glutamate) was 0.6; in test [6] (Table 9, glutamate), 0.6.
For the compound `c1cc2c3c(ccc(CSCCc4ccncc4)c3c1)CC2` [Compound 36], the IQ in test [1] (Table 7), in test [1] (Table 8) and in test [1] (Table 9) was 3.7 throughout. The inhibition at 2.5 µM in test [2] (setting [8]) is -0.6%; in test [3] (setting [14]), 33.6%; in test [3] (setting [11]), 33.6%; in test [3] (setting [13]), 33.6%; in test [4], 1.1%. For the same compound, the IF in test [2] (setting [9]) and in test [2] (setting [10]) was 0.6 in each case. Further, the IIIQO in test [3] (setting [12]) is given as −33.6. For the same compound, the SDH in test [4] (Table 8) and in test [4] (Table 9) was −1.1 throughout. The inhibition in test [5] is 4.9%. For the same compound, the GPDH in test [5] (Table 8) and in test [5] (Table 9) was −4.9 in each case. Besides, the ΔΨm is listed as 0.0 in test [6] (Table 8, glutamate) and 0.0 in test [6] (Table 9, glutamate).
As to `Cc1cc(C)c(S(=O)(=O)N2CCCC2=O)c(C)c1` [Compound 40], the IQ in test [1] (Table 7), in test [1] (Table 8) and in test [1] (Table 9) was 4.3 throughout. Besides, the inhibition at 2.5 µM is -1.8% in test [2] (setting [8]); 25.1% in test [3] (setting [14]); 25.1% in test [3] (setting [11]); 25.1% in test [3] (setting [13]); 2.7% in test [4]. Also, the IF in test [2] (setting [9]) and in test [2] (setting [10]) was 1.8 throughout. Further, the IIIQO in test [3] (setting [12]) is recorded as −25.1. Also, the SDH in test [4] (Table 8) and in test [4] (Table 9) was −2.7 in each case. The inhibition in test [5] stood at 4.2%. Besides, the GPDH in test [5] (Table 8) and in test [5] (Table 9) was −4.2 throughout. The ΔΨm is listed as 0.7 in test [6] (Table 8, glutamate) and 0.7 in test [6] (Table 9, glutamate).
Regarding `COc1ccc(-c2ccccc2)cc1NCC1=CC[C@H]2C[C@@H]1C2(C)C` [Compound 41], the IQ in test [1] (Table 7), in test [1] (Table 8) and in test [1] (Table 9) was 0.2 in each case. Further, the inhibition at 2.5 µM in test [2] (setting [8]) was -6.6%; in test [3] (setting [14]) it was 24.7%; in test [3] (setting [11]) it was 24.7%; in test [3] (setting [13]), 24.7%; in test [4] it was -1.2%. Further, the IF in test [2] (setting [9]) and in test [2] (setting [10]) was 6.6 throughout. In test [3] (setting [12]), the IIIQO is listed as −24.7. The SDH in test [4] (Table 8) and in test [4] (Table 9) was 1.2 each time. Also, in test [5], the inhibition was -2.6%. The GPDH in test [5] (Table 8) and in test [5] (Table 9) was 2.6 each time. Further, the ΔΨm came to 2.3 in test [6] (Table 8, glutamate) and 2.3 in test [6] (Table 9, glutamate).
Regarding `Fc1ccc(SCCc2ccccn2)cc1` [Compound 42], the IQ in test [1] (Table 7), in test [1] (Table 8) and in test [1] (Table 9) was 7.9 each time. In addition, the inhibition at 2.5 µM in test [2] (setting [8]) is 2.6%; in test [3] (setting [14]), 24.1%; in test [3] (setting [11]), 24.1%; in test [3] (setting [13]), 24.1%; in test [4] it was -0.7%. Moreover, the IF in test [2] (setting [9]) and in test [2] (setting [10]) was −2.6 throughout. The IIIQO in test [3] (setting [12]) was −24.1. The SDH in test [4] (Table 8) and in test [4] (Table 9) was 0.7 in each case. Also, in test [5], the inhibition is 0.3%. Also, the GPDH in test [5] (Table 8) and in test [5] (Table 9) was −0.3 each time. Besides, the ΔΨm in test [6] (Table 8, glutamate) is on record as 0.4; in test [6] (Table 9, glutamate), 0.4.
On to `O=C(O)/C=C/C(=O)Nc1ccc(/C=C/c2ccccc2)cc1` [Compound 49], for which the IQ in test [1] (Table 7), in test [1] (Table 8) and in test [1] (Table 9) was 1.7 each time. Further, the inhibition at 2.5 µM in test [2] (setting [8]) is -1%; in test [3] (setting [11]), -10%; in test [3] (setting [13]) it was -10%; in test [4] it was 1%; in test [5] (Table 6, 25 mM glycerol phosphate, rotenone, antimycin A, malonate, myxothiazol, compounds 2.5 μM, scaled to IQ positive controls, read-out: % Reduction in ROS Production (GPDH)), 12.7%. The IF in test [2] (setting [9]) and in test [2] (setting [10]) was 1.0 throughout. This compound returned an IIIQO in test [3] (setting [12]) of 10.0. For the same compound, the SDH in test [4] (Table 8) and in test [4] (Table 9) was −1.0 each time. In test [5], the inhibition came to 12.7%. The GPDH in test [5] (Table 8) and in test [5] (Table 9) was −12.7 each time. In addition, the ΔΨm is listed as −0.3 in test [6] (Table 8, glutamate) and −0.3 in test [6] (Table 9, glutamate).
